# PubChem BioAssay (NCI)
#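 Briefly, cells in 96-well plates were exposed to five compound concentrations for 48 h, and endpoints were estimated by linear interpolation. TGI: concentration producing complete growth inhibition.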
# Columns and labels:
# Experiment in all cases: NCI anticancer screen, dose series, 48 h
# [1] = test system: UO-31 renal
# [2] = test system: NCI-H226 lung
# [3] = test system: NCI-H522 lung
# [4] = test system: RXF 393 renal
# [5] = test system: SF-268 CNS
# [6] = test system: HCC-2998 colon
# [7] = test system: OVCAR-3 ovarian
# [8] = test system: MDA-N
# [9] = test system: UACC-257 melanoma
# [10] = test system: SN12C renal
# [11] = test system: SR leukemia
# [12] = test system: EKVX NSCLC
# [13] = test system: MCF7 breast
# [14] = test system: T-47D breast
# [15] = test system: SK-MEL-5 melanoma
# [16] = test system: K-562 leukemia
# [17] = test system: HS 578T breast
# [18] = test system: M14 melanoma
# [19] = test system: BT-549 breast
# [20] = test system: OVCAR-5 ovarian
# [21] = test system: MALME-3M melanoma
# [22] = test system: KM12 colon
# [23] = test system: PC-3 prostate
# [24] = test system: RPMI-8226 leukemia
# [25] = test system: OVCAR-4 ovarian
# [26] = test system: SK-OV-3 ovarian
# [27] = test system: MDA-MB-231 breast
# [28] = test system: HOP-92 NSCLC
# [29] = test system: A498 renal
# [30] = test system: A549 NSCLC
# [31] = test system: UACC-62 melanoma
# [32] = test system: DU-145 prostate
# [33] = test system: MOLT-4 leukemia
# [34] = test system: LOX IMVI melanoma
# [35] = test system: 786-0 renal
# [36] = test system: U251 CNS
# [37] = test system: HCT-116 colon
# [38] = test system: SNB-75 CNS
# [39] = test system: NCI-H23 lung
# [40] = test system: SNB-19 CNS
# [41] = test system: ACHN renal
# [42] = test system: OVCAR-8 ovarian
# [43] = test system: SW-620 colon
# [44] = test system: SF-295 CNS
# [45] = test system: CAKI-1 renal
# [46] = test system: SK-MEL-28 melanoma
# [47] = test system: MDA-MB-435
# [48] = test system: HCT-15 colon
# [49] = test system: IGROV1 ovarian
# [50] = test system: COLO 205 colon
# [51] = test system: CCRF-CEM leukemia
# [52] = test system: SK-MEL-2 melanoma
# [53] = test system: HT29 colon
# [54] = test system: HOP-62 NSCLC
# [55] = test system: TK-10 renal
# [56] = test system: SF-539 CNS
# [57] = test system: NCI-H460 lung
# [58] = test system: NCI/ADR-RES ovarian
# [59] = test system: HL-60(TB) leukemia
smiles,measurement,setting,value
CC(=O)OCCCOCn1c(Cc2ccccc2)c(C)c(=O)[nH]c1=O,TGI,[1],> 100 µM
same,TGI,[2],> 100 µM
same,TGI,[3],> 100 µM
same,TGI,[4],> 100 µM
same,TGI,[5],> 100 µM
same,TGI,[6],> 100 µM
same,TGI,[7],> 100 µM
same,TGI,[8],> 100 µM
same,TGI,[9],> 100 µM
same,TGI,[10],> 100 µM
same,TGI,[11],> 100 µM
same,TGI,[12],> 100 µM
same,TGI,[13],> 100 µM
same,TGI,[14],> 100 µM
same,TGI,[15],> 100 µM
same,TGI,[16],> 100 µM
same,TGI,[17],> 100 µM
same,TGI,[18],> 100 µM
same,TGI,[19],> 100 µM
same,TGI,[20],> 100 µM
same,TGI,[21],> 100 µM
same,TGI,[22],> 100 µM
same,TGI,[23],> 100 µM
same,TGI,[24],> 100 µM
same,TGI,[25],> 100 µM
same,TGI,[26],> 100 µM
same,TGI,[27],> 100 µM
same,TGI,[28],> 100 µM
same,TGI,[29],> 100 µM
same,TGI,[30],> 100 µM
same,TGI,[31],> 100 µM
same,TGI,[32],> 100 µM
same,TGI,[33],> 100 µM
same,TGI,[34],> 100 µM
same,TGI,[35],> 100 µM
same,TGI,[36],> 100 µM
same,TGI,[37],> 100 µM
same,TGI,[38],> 100 µM
same,TGI,[39],> 100 µM
same,TGI,[40],> 100 µM
same,TGI,[41],> 100 µM
same,TGI,[42],> 100 µM
same,TGI,[43],> 100 µM
same,TGI,[44],> 100 µM
same,TGI,[45],> 100 µM
same,TGI,[46],> 100 µM
same,TGI,[47],> 100 µM
same,TGI,[48],> 100 µM
same,TGI,[49],> 100 µM
same,TGI,[50],> 100 µM
same,TGI,[51],> 100 µM
same,TGI,[52],> 100 µM
same,TGI,[53],> 100 µM
same,TGI,[54],> 100 µM
same,TGI,[55],> 100 µM
same,TGI,[56],> 100 µM
same,TGI,[57],> 100 µM
Cc1ccsc1/C=N/Nc1nc2ccccc2s1,TGI,[1],> 100 µM
same,TGI,[2],51.9 µM
same,TGI,[4],29 µM
same,TGI,[5],66.7 µM
same,TGI,[6],> 100 µM
same,TGI,[7],60.7 µM
same,TGI,[8],> 100 µM
same,TGI,[9],51.4 µM
same,TGI,[10],41.3 µM
same,TGI,[12],41.9 µM
same,TGI,[13],36 µM
same,TGI,[14],> 100 µM
same,TGI,[15],47.9 µM
same,TGI,[16],34.9 µM
same,TGI,[58],77.4 µM
same,TGI,[17],78.2 µM
same,TGI,[18],> 100 µM
same,TGI,[19],> 100 µM
same,TGI,[20],> 100 µM
same,TGI,[22],74.6 µM
same,TGI,[23],50.1 µM
same,TGI,[24],72.2 µM
same,TGI,[25],72.9 µM
same,TGI,[26],35.3 µM
same,TGI,[27],27.5 µM
same,TGI,[28],49.5 µM
same,TGI,[29],19.2 µM
same,TGI,[30],50.5 µM
same,TGI,[31],> 100 µM
same,TGI,[32],> 100 µM
same,TGI,[33],31.3 µM
same,TGI,[34],> 100 µM
same,TGI,[35],24.7 µM
same,TGI,[36],28.3 µM
same,TGI,[37],23.2 µM
same,TGI,[38],35.6 µM
same,TGI,[39],> 100 µM
same,TGI,[40],26.9 µM
same,TGI,[41],30.8 µM
same,TGI,[42],> 100 µM
same,TGI,[43],94.9 µM
same,TGI,[44],23.8 µM
same,TGI,[45],36.1 µM
same,TGI,[46],> 100 µM
same,TGI,[47],> 100 µM
same,TGI,[48],> 100 µM
same,TGI,[49],23.5 µM
same,TGI,[50],> 100 µM
same,TGI,[51],28.8 µM
same,TGI,[52],75.3 µM
same,TGI,[53],> 100 µM
same,TGI,[54],22.4 µM
same,TGI,[55],26.9 µM
O=C(NCCC1([N+](=O)[O-])CCN(C(=O)c2ccccc2)CC1)c1ccccc1,TGI,[1],> 100 µM
same,TGI,[2],> 100 µM
same,TGI,[3],> 100 µM
same,TGI,[4],> 100 µM
same,TGI,[5],> 100 µM
same,TGI,[8],> 100 µM
same,TGI,[9],87.8 µM
same,TGI,[10],> 100 µM
same,TGI,[11],> 100 µM
same,TGI,[12],> 100 µM
same,TGI,[14],> 100 µM
same,TGI,[15],> 100 µM
same,TGI,[16],> 100 µM
same,TGI,[58],> 100 µM
same,TGI,[17],> 100 µM
same,TGI,[18],> 100 µM
same,TGI,[19],> 100 µM
same,TGI,[20],> 100 µM
same,TGI,[21],> 100 µM
same,TGI,[22],> 100 µM
same,TGI,[23],> 100 µM
same,TGI,[24],> 100 µM
same,TGI,[25],> 100 µM
same,TGI,[26],> 100 µM
same,TGI,[27],> 100 µM
same,TGI,[29],> 100 µM
same,TGI,[30],> 100 µM
same,TGI,[31],> 100 µM
same,TGI,[59],> 100 µM
same,TGI,[32],> 100 µM
same,TGI,[33],> 100 µM
same,TGI,[35],> 100 µM
same,TGI,[37],> 100 µM
same,TGI,[39],> 100 µM
same,TGI,[40],> 100 µM
same,TGI,[41],> 100 µM
same,TGI,[42],> 100 µM
same,TGI,[43],> 100 µM
same,TGI,[44],> 100 µM
same,TGI,[45],> 100 µM
same,TGI,[47],> 100 µM
same,TGI,[48],> 100 µM
same,TGI,[49],> 100 µM
same,TGI,[50],> 100 µM
same,TGI,[51],> 100 µM
same,TGI,[52],> 100 µM
same,TGI,[53],> 100 µM
same,TGI,[55],> 100 µM
same,TGI,[56],> 100 µM
same,TGI,[57],> 100 µM
CC(C)/C(Cl)=N\OC(=O)Nc1ccccc1F,TGI,[1],29.6 µM
same,TGI,[2],28.8 µM
same,TGI,[4],9.97 µM
same,TGI,[5],41.9 µM
same,TGI,[6],19.6 µM
same,TGI,[7],34.4 µM
same,TGI,[8],30.6 µM
same,TGI,[9],33.2 µM
same,TGI,[10],26.8 µM
same,TGI,[11],6.54 µM
same,TGI,[12],30.7 µM
same,TGI,[13],16 µM
same,TGI,[14],49.5 µM
same,TGI,[15],27.9 µM
same,TGI,[16],6.52 µM
same,TGI,[58],30.7 µM
same,TGI,[17],> 69.3 µM
same,TGI,[18],13.3 µM
same,TGI,[19],27.6 µM
same,TGI,[20],33.3 µM
same,TGI,[21],8.72 µM
same,TGI,[22],40.3 µM
same,TGI,[23],30.9 µM
same,TGI,[24],92.6 µM
same,TGI,[25],31.7 µM
same,TGI,[26],33.4 µM
same,TGI,[27],22.6 µM
same,TGI,[28],4.06 µM
same,TGI,[29],28.3 µM
same,TGI,[30],35.6 µM
same,TGI,[31],36.6 µM
same,TGI,[59],4.13 µM
same,TGI,[32],30 µM
same,TGI,[33],12.4 µM
same,TGI,[34],6.92 µM
same,TGI,[35],29.9 µM
same,TGI,[36],31.1 µM
same,TGI,[37],23.9 µM
same,TGI,[38],23.1 µM
same,TGI,[39],33.7 µM
same,TGI,[40],> 57.3 µM
same,TGI,[41],24.9 µM
same,TGI,[42],31.4 µM
same,TGI,[43],3.59 µM
same,TGI,[44],30.3 µM
same,TGI,[45],38.3 µM
same,TGI,[46],30.4 µM
same,TGI,[48],31.3 µM
same,TGI,[49],33.4 µM
same,TGI,[50],4.2 µM
same,TGI,[51],3.44 µM
same,TGI,[52],33.2 µM
same,TGI,[53],54.3 µM
same,TGI,[54],> 55.6 µM
same,TGI,[55],27.6 µM
same,TGI,[56],32.1 µM
same,TGI,[57],36.2 µM
